This is an account of results in patent USRE40233E1, “Viral variants and methods for detecting same” (Melbourne Health, priority 1996, dated 2008).

Experiment [1] relates to HBV. In words: serum HBV DNA level during antiviral therapy, patient A (post-OLT). The format is in vivo, Hepatitis B Virus. The text has this: The patient was transplanted because of end-stage liver failure due to chronic HBV infection. The initial post transplant course was unremarkable but by 5 months there was evidence of recurrent infection and very high levels of viral replication and deteriorating liver function (12). The histological picture was consistent with fibrosing cholestatic hepatitis. Antiviral treatment was commenced approximately 6 months post-OLT. Initially, the patient received intravenous (iv) ganciclovir (GCV; 10 mg/kg/day) in combination with iv foscarnet (PFF; 50-125 mg/kg/day; the dose depending on renal function) (12). This is the treatment of GCV+PFF described in FIG. 2 which lasted for 86 days. Maintenance iv GCV (3.3-6.7 mg/kg/day) three times per week was commenced on day 87 of antiviral treatment (GCV in FIG. 2). Oral famciclovir (250 mg, twice daily) was commenced on day 446 of therapy (FCV [I] in FIG. 2) which was increased to 500 mg twice daily (FCV [II] in […]) on day 500. The patient is currently on this treatment regime. The clinical and virological details of this patient preceding famciclovir therapy have been reported (12).
Serum samples were routinely collected and stored at −70° C. Informed consent was obtained from the patient to use these samples for research purposes. […] The 5 samples chosen for additional studies cover a period of almost four years.
Hepatitis B surface antigen (HbsAg), hepatitis B e antigen (HbeAg), anti-HBe, hepatitis B core antigen (HbcAg) specific IgG and IgM, hepatitis A specific IgM, hepatitis delta antigen and antibody, and anti-hepatitis C virus antibody were measured using commercially available immunoassays (Abbott Laboratories, North Chicago, Ill.). Only the HBV markers were positive. Hepatitis B viral DNA levels were measured and quantified using a capture hybridisation assay according to the manufacturer's directions (Digene Diagnostics Inc., Beltsville, Md.).
This reduction in viraemia was associated with clinical, biochemical and histological improvement (12). […] However, the level of HBV DNA gradually rose over time from 3,000 pg/ml on day 600 (154 days of famciclovir), to 8,800 pg/ml on day 816 (370 days famciclovir), peaking at 29,000 pg/ml on day 1302 (856 days of famciclovir), then stabilising at around 12,000 pg/ml on day 1329 (883 days of famciclovir). […] There was a 1.5 to 2 fold rise in ALT levels over the same time interval (FIG. 2) and no change in clinical status.

Another experiment relates to duck HBV. As to conditions: in vitro; cited from earlier work.
The subject of experiment [2] is HBV DNA polymerase-reverse transcriptase. The following applies: in vitro; cited from earlier work.
The test system of the next experiment is duck HBV virus. The following applies: oral, in vivo; cited from earlier work.
The subject of experiment [3] is HBV. Put plainly: response to antiviral treatment, patient C. The format is in vivo, Hepatitis B Virus. An excerpt:
Patient B was undergoing long term famciclovir treatment (>850 days). The amino acid change selected during famciclovir treatment is shown as HBV (patient B) in FIG. 5. […] The HBV isolated during FCV treatment from patient C, is shown as HBV (patient C-FCV). All 3TC resistance mutations which developed during treatment with 3TC is shown as HBV (patient C-3TC). […] A mutation of Met 550 to Ile in the YMDD motif was detected from HBV isolated 32 days (333 days post treatment) after the HBV containing the Thr-Ser substitution was isolated.

Experiment [4] deals with HBV. As to conditions: in man, patient with severe hepatitis B following OLT; cited from earlier work.
Experiment [5] deals with T1, HBV DNA polymerase (Hepatitis B virus genotype D subtype ayw, UniProt P03156, L515M/V508L).
T1 construct: Small aliquots of the suspension were assayed for endogenous HBV DNA polymerase activity; from tissue; host or cells: patient serum; virions pelleted through a 20% sucrose cushion and treated with Triton X-100
T1 sequence (P03156 whole entry V508L/L515M): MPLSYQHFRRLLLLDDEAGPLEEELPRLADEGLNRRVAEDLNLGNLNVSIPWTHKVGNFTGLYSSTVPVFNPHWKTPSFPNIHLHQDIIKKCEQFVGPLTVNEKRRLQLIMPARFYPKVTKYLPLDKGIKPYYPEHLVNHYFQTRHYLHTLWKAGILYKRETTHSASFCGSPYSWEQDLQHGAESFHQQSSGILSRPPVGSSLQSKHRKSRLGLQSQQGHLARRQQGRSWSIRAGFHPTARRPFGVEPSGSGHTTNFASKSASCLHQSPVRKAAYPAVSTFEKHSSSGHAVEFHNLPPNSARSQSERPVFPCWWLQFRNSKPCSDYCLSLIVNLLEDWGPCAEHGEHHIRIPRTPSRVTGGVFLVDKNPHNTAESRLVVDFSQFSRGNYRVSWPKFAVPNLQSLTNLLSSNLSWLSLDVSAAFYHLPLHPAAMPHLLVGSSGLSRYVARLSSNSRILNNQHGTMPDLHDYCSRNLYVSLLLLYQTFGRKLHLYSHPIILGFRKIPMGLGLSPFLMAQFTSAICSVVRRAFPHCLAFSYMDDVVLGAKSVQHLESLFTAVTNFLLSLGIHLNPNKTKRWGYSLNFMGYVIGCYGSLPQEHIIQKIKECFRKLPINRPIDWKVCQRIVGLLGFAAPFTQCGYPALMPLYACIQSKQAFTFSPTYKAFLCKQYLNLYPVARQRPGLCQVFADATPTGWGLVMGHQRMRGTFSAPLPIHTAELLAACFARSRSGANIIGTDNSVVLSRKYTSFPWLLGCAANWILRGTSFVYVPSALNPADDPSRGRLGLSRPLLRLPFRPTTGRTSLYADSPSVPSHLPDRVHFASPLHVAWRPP
Put plainly: endogenous HBV DNA polymerase assay, PCV-TP sensitivity. In kind it is biochemical. The following applies: 100 μmol/L PCV-TP, serum HBV of patient A. As for the experimental part:
(§1) Samples of serum (100 μl) were applied to a 20% w/v sucrose cushion in TNE (20 mmol/L Tris-HCl pH 7.4, 150 mmol/L NaCl2 1 mmol/L EDTA) and centrifuged at 200,000 g for 3 hr at 10° C. using an SW41 rotor in a Beckman Model L8 ultracentrifugc. The pellet was resuspended in 50 mmol/L TRIS-HCl pH 7.5 containing 1.5% v/v Triton-X100, 100 mmol/L Kcl and 0.01% v/v 2-mercaptoethanol and allowed to stand overnight at 4° C. Small aliquots of the suspension were assayed for endogenous HBV DNA polymerase activity essentially as described by Price et al (16). Each assay was performed in a total volume of 30 μl which contained 20 μl of the partly purified HBV and (final concentrations) 30 mmol/L Tris-HCl pH 7.5, 30 mmol/L MgCl2, 10 μmol/L each dATP, dTTP and dGTP, and 0.01 μM [α-^32P]-dCTP (3,000 Ci/mmol) (Dupont NEN, Boston, Mass.). To test for penciclovir triphosphate (PCV-TP) sensitivity, paired assays were performed on each sample, with an excess (100 μmol/L penciclovir-triphosphate included in the reaction mixture in one assay of each pair. After 2 hr at 37° C., reactions were stopped by spotting 20 μl aliquots of each reaction mix onto 25 mm diameter glass fibre discs (Advantex, Tokyo, Japan) which had been pre-soaked in 10% w/v trichloroacetic acid (TCA). Discs were dried before washing in ice-cold 10% w/v TCA containing 10 mmol/L sodium pyrophosphate.
(§2) Three further 10 min. washes in cold 5% v/v TCA followed. The washed discs were finally rinsed in absolute ethanol, air dried, and counted for radioactivity. Inhibition of HBV DNA polymerase activity by PCV-TP was expressed as the percentage difference in activity in the assay mix containing PCV-TP compared to the matched control. Because of limited sample amounts, it was not possible to standardize enzyme activity or to perform replicate assays. Despite the inherent variability of the assay, a general time related decrease in sensitivity of the HBV DNA polymerase to PCV-TP was evident (see Table 1).

In experiment [6] the test system is HBV DNA polymerase. The experiment is described as above. The format is biochemical, Hepatitis B Virus. As to conditions: 100 μmol/L PCV-TP, serum HBV of patient A. The procedure: as §1, §2

`Nc1nc(O)c2ncn(COC(CO)CO)c2n1` [GCV, ganciclovir]: in the experiment with HBV [1] (maintenance iv GCV from day 87, over 359 days), the “levels of HBV DNA” value is given as “fluctuating levels of HBV DNA”.

In the case of `Nc1nc2c(ncn2CCC(CO)CO)c(=O)[nH]1` [Peniciclovir, penciclovir], the “activity against duck HBV DNA synthesis” value with duck HBV is “potent inhibitory activity”. Also, in experiment [2], the “HBV DNA polymerase-reverse transcriptase activity” value is recorded as “inhibit”.

In the case of `CC(=O)OCC(CCn1cnc2cnc(N)nc21)COC(C)=O` [famciclovir], in the experiment with duck HBV virus, the “intra-hepatic replication of duck HBV virus” value is “inhibit”. In addition, in the experiment on HBV [3], the response to treatment entry is recorded as “did not respond”. The “HBV DNA replication” value in the experiment with HBV [4] is recorded as “reduce HBV DNA replication”. The “level of HBV DNA” value in the experiment on HBV [1] (day 600 (154 days of famciclovir)) was 3,000 pg/ml; in the experiment with HBV [1] (day 816 (370 days famciclovir)), 8,800 pg/ml; in the experiment with HBV [1] (day 1302 (856 days of famciclovir), peak) it was 29,000 pg/ml; in the experiment with HBV [1] (day 1329 (883 days of famciclovir)) it was “around 12,000 pg/ml”. The “HBV DNA change” value in the experiment on HBV [1] (dose increase to 500 mg twice daily on day 500 (FCV[II])) is on record as “decrease in HBV DNA”; in the experiment on HBV [1] (switch to oral famciclovir 250 mg twice daily on day 446 (FCV[I])), “rise in HBV DNA”.

As for penciclovir triphosphate [PCV-TP], the “Inhibition of HBV DNA polymerase by PCV-TP” value is 0% on HBV DNA polymerase [5] (day 816 of antiviral treatment (370 days famciclovir), Val519Leu/Leu526Met); 0% on HBV DNA polymerase [5] (day 1329 of antiviral treatment (883 days famciclovir)); 30% in the experiment with HBV DNA polymerase [6] (day 600 of antiviral treatment (154 days famciclovir)); 40% in the experiment on HBV DNA polymerase [6] (pretreatment sample).
